Measured values taken from ChEMBL document CHEMBL3217570, “A class of novel AA-Trp-Trp-OBzl: synthesis, in vitro anti-proliferation, in vivo anti-tumor action, and intercalation mechanism” (Medchemcomm, 2011).
Activity calls are given as the source filed them. The calls are words filed in the database; no cut-off is given here. Residues, ends and D or L forms follow the SMILES beside them. *: point of attachment. OBn = c1ccc(CO*)cc1

Assays:
CCRF S-180 [1] = experiment: Antitumor activity against mouse S180 cells allografted in ICR mouse assessed as tumor growth inhibition at 0.89 mg/kg, ip qd for 7 days relative to control; type: functional; details: CCRF S-180, ip, 168 h, route intraperitoneal, read-out: TGI
Mus musculus [2] = experiment: Toxicity in mouse S180 cells allografted ICR mouse assessed as brain weight at 8.9 mg/kg, ip qd for 7 days relative to control; type: organism-based, CCRF S-180; set-up: dose 8.9 mg/kg, route intraperitoneal; details: in vivo, 168 h
[3] = Acute toxicity in ip dosed ICR mouse after 7 days; type: organism-based; details: in vivo
HepG2 = experiment: Antiproliferative activity against human HepG2 cells after 48 hrs by MTT assay; type: functional, cell-based; details: HepG2, 48 h
CCRF S-180 [4] = experiment: Antitumor activity against mouse S180 cells allografted in ICR mouse assessed as tumor growth inhibition at 0.089 mg/kg, ip qd for 7 days relative to control; type: functional; details: CCRF S-180, ip, 168 h, route intraperitoneal, read-out: TGI
Calf thymus DNA [5] = experiment: Binding affinity to calf thymus DNA assessed as melting temperature at 10 uM; type: nucleic-acid assay; details: Bos taurus
H22 = experiment: Antiproliferative activity against mouse H22 cells after 48 hrs by MTT assay; type: functional, cell-based; details: H22, 48 h
K562 = experiment: Antiproliferative activity against human K562 cells after 48 hrs by MTT assay; type: functional, cell-based; details: K562, 48 h
CCRF S-180 [6] = experiment: Antiproliferative activity against mouse S180 cells after 48 hrs by MTT assay; type: functional, cell-based; details: CCRF S-180, 48 h
Mus musculus [7] = experiment: Toxicity in mouse S180 cells allografted ICR mouse assessed as spleen index at 8.9 mg/kg, ip qd for 7 days relative to control; type: organism-based, CCRF S-180; set-up: dose 8.9 mg/kg, route intraperitoneal; details: in vivo, 168 h
Calf thymus DNA [8] = experiment: Binding affinity to calf thymus DNA assessed as increase of DNA […] at compound-DNA ratio up to 0.36; type: nucleic-acid assay; details: Bos taurus
Mus musculus [9] = experiment: Toxicity in mouse S180 cells allografted ICR mouse assessed as increase of body weight at 8.9 mg/kg, ip qd for 7 days relative to control; type: organism-based, CCRF S-180; set-up: dose 8.9 mg/kg, route intraperitoneal; details: in vivo, 168 h
Calf thymus DNA [10] = experiment: Binding affinity to 10 to 70 uM of calf thymus DNA assessed as decrease in fluorescence intensity at 50 uM by fluorescence spectra analysis; type: nucleic-acid assay; details: Bos taurus
Mus musculus [11] = experiment: Toxicity in mouse S180 cells allografted ICR mouse assessed as liver weight at 8.9 mg/kg, ip qd for 7 days relative to control; type: organism-based, CCRF S-180; set-up: dose 8.9 mg/kg, route intraperitoneal; details: in vivo, 168 h
Mus musculus [12] = experiment: Neurotoxicity in ICR mouse assessed as neurotoxic behavior up to 500 mg/kg, ip after 7 days; type: toxicity, organism-based; set-up: dose 500 mg/kg, route intraperitoneal; details: in vivo, 168 h
Mus musculus [13] = experiment: Toxicity in mouse S180 cells allografted ICR mouse assessed as kidney weight at 8.9 mg/kg, ip qd for 7 days relative to control; type: organism-based, CCRF S-180; set-up: dose 8.9 mg/kg, route intraperitoneal; details: in vivo, 168 h
Calf thymus DNA [14] = experiment: Binding affinity to 70 uM of calf thymus DNA assessed as decrease in fluorescence intensity at 50 uM by fluorescence spectra analysis; type: nucleic-acid assay; set-up: scale not given: the % may be the effect or the level left; details: Bos taurus
CCRF S-180 [15] = experiment: Antitumor activity against mouse S180 cells allografted in ip dosed ICR mouse assessed as tumor growth inhibition administered qd for 7 days relative to control; type: functional, organism-based
CCRF S-180 [16] = experiment: Antitumor activity against mouse S180 cells allografted in ICR mouse assessed as tumor growth inhibition at 8.9 mg/kg, ip qd for 7 days relative to control; type: functional; details: CCRF S-180, ip, 168 h, route intraperitoneal, read-out: TGI
B16 = experiment: Antiproliferative activity against mouse B16 cells after 48 hrs by MTT assay; type: functional, cell-based; details: B16, 48 h
Mus musculus [17] = experiment: Toxicity in ICR mouse assessed as mortality up to 500 mg/kg, ip after 7 days; type: organism-based; set-up: dose 500 mg/kg, route intraperitoneal; details: in vivo, 168 h
Mus musculus [18] = experiment: Toxicity in ICR mouse assessed as changes in organs up to 500 mg/kg, ip after 7 days by necropsy analysis; type: organism-based; set-up: dose 500 mg/kg, route intraperitoneal; details: in vivo, 168 h

Compound | inhibition in vivo at 0.89 mg/kg (CCRF S-180 [1]) [%] | Activity (Mus musculus [2]) | LD50 at 168 h [3] [mg/kg] | IC50 (HepG2) [µM] | inhibition in vivo at 0.089 mg/kg (CCRF S-180 [4]) [%] | IC50 (H22) [µM] | IC50 (K562) [µM] | IC50 (CCRF S-180 [6]) [µM] | Activity (Mus musculus [7]) | Activity (Mus musculus [9]) | Activity (Mus musculus [11]) | Activity (Mus musculus [12]) | Activity (Mus musculus [13]) | inhibition in vivo at 8.9 mg/kg (CCRF S-180 [16]) [%] | IC50 (B16) [µM] | Activity (Mus musculus [17]) | Activity (Mus musculus [18]) | other results
NC(=O)C[C@H](N)C(=O)N[C@@H](Cc1c[nH]c2ccccc12)C(=O)N[C@@H](Cc1c[nH]c2ccccc12)C(=O)OCc1ccccc1 (H-Asn-Trp-Trp-OBn) | 46.7 | Non-toxic | > 500 | 11.9 | 26.6 | 11 | 11 | 13.5 | Non-toxic | Toxic | Non-toxic | Non-toxic | Non-toxic | 85.1 | 13.8 | Non-toxic | Non-toxic | Tm (Calf thymus DNA [5]): 20.8 °C; Activity (Calf thymus DNA [8]): Active; Activity (Calf thymus DNA [10]): Active; Activity (Calf thymus DNA [14]): 35.3%; TGI (CCRF S-180 [15]): Dose-dependent effect
N[C@@H](CO)C(=O)N[C@@H](Cc1c[nH]c2ccccc12)C(=O)N[C@@H](Cc1c[nH]c2ccccc12)C(=O)OCc1ccccc1 (H-Ser-Trp-Trp-OBn) |  | Non-toxic | > 500 | 25.9 |  | 25.2 | 25.6 | 26.3 | Non-toxic | Toxic | Non-toxic | Non-toxic | Non-toxic | 48.2 | 48.4 | Non-toxic | Non-toxic | 
N[C@@H](Cc1ccc(O)cc1)C(=O)N[C@@H](Cc1c[nH]c2ccccc12)C(=O)N[C@@H](Cc1c[nH]c2ccccc12)C(=O)OCc1ccccc1 (H-Tyr-Trp-Trp-OBn) |  | Non-toxic | > 500 | 23.6 |  | 23 | 21.3 | 22.9 | Non-toxic | Toxic | Non-toxic | Non-toxic | Non-toxic | 53.4 | 24.8 | Non-toxic | Non-toxic | 
CC(C)[C@H](N)C(=O)N[C@@H](Cc1c[nH]c2ccccc12)C(=O)N[C@@H](Cc1c[nH]c2ccccc12)C(=O)OCc1ccccc1 (H-Val-Trp-Trp-OBn) |  | Non-toxic | > 500 | 37.4 |  | 36 | 40.4 | 36.1 | Non-toxic | Toxic | Non-toxic | Non-toxic | Non-toxic | 33.5 | 50.1 | Non-toxic | Non-toxic | 
Nc1ccn([C@@H]2O[C@H](CO)[C@@H](O)[C@@H]2O)c(=O)n1 [CYTARABINE] | 20.6 |  |  | 38.1 | 7.86 | 37.8 | 43.6 | 40.3 |  |  |  |  |  | 31.9 | 49.2 |  |  | 
